In ChEMBL document CHEMBL1143254, “Structure-based design of novel 2-amino-6-phenyl-pyrimido[5',4':5,6]pyrimido[1,2-a]benzimidazol-5(6H)-ones as potent and orally active inhibitors of lymphocyte specific kinase (Lck): synthesis, SAR, and in vivo anti-inflammatory activity” (J Med Chem, 2008):
Values after ≈ are worked out from the molar mass of the structure shown.

Columns and labels:
[1] = target: Mitogen-activated protein kinase 14 (Homo sapiens, UniProt Q16539); assay: Inhibition of p38-alpha by HTRF assay
[2] = target: Proto-oncogene tyrosine-protein kinase Src (Homo sapiens, UniProt P12931); assay: Inhibition of Src by HTRF assay
[3] = target: Vascular endothelial growth factor receptor 2 (Homo sapiens, UniProt P35968); assay: Inhibition of KDR by HTRF assay
[4] = test system: Lymphocyte; assay: Inhibition of T cell activation in human peripheral blood lymphocytes by mixed lymphocyte reaction; assay type: functional, cell-based
[5] = target: Tyrosine-protein kinase Lck (Homo sapiens, UniProt P06239)
Description: Inhibition of Lck by HTRF assay

[6] = test system: T-cell; assay: Inhibition of anti-CD3/CD28-induced IL2 production in human T cells; assay type: functional, cell-based
[7] = Solubility in simulated intestinal fluid at pH 6.8; assay type: physicochemical
[8] = target: Mitogen-activated protein kinase 10 (Homo sapiens, UniProt P53779); assay: Inhibition of JNK3 by HTRF assay
[9] = test system: Rattus norvegicus; assay: Antiinflammatory activity against collagen-induced arthritis in po dosed Lewis rat assessed as reduction of paw swelling; assay type: functional
[10] = test system: Rattus norvegicus; assay: Inhibition of Mycobacterium tuberculosis H37Ra-induced arthritis in po dosed Lewis rat assessed as reduction of paw swelling; assay type: functional
[11] = Oral bioavailability in Sprague-Dawley rat at 5 mg/kg; assay type: ADME, organism-based; details: in vivo
[12] = target: Tyrosine-protein kinase Lyn (Homo sapiens, UniProt P07948); assay: Inhibition of Lyn by HTRF assay
[13] = test system: Rattus norvegicus; assay: Antiinflammatory activity against collagen-induced arthritis in Lewis rat assessed as reduction of paw swelling at 1 mg/kg, po qd for 7 days relative to control; assay type: functional; parameters: scale not given: the % may be the effect or the level left
[14] = Cmax in collagen-induced arthritis Lewis rat; assay type: ADME, organism-based; details: in vivo
[15] = test system: Jurkat; assay: Cytotoxicity against human Jurkat T cells assessed as cell viability after 72 hrs
[16] = AUC (0 to infinity) in Sprague-Dawley rat at 5 mg/kg, po; assay type: ADME, organism-based; parameters: time infinity, dose 5 mg/kg, route oral; details: plasma
[17] = species on record: Mus musculus; assay: Inhibition of anti-CD3-induced IL2 production in BALB/c mouse serum by ELISA; assay type: functional
[18] = test system: Rattus norvegicus; assay: Antiinflammatory activity against collagen-induced arthritis in Lewis rat assessed as reduction of paw swelling at 10 mg/kg, po qd for 7 days relative to control; assay type: functional; parameters: scale not given: the % may be the effect or the level left
[19] = target: Tyrosine-protein kinase ZAP-70 (Homo sapiens, UniProt P43403); assay: Inhibition of ZAP-70 by HTRF assay
[20] = test system: T-cell; assay: Inhibition of anti-CD3/CD28-induced IL2 secretion in human T cells stimulated with phorbol myristic acid and calcium ionophore
[21] = target: Angiopoietin-1 receptor (Homo sapiens, UniProt Q02763); assay: Inhibition of Tie-2 by HTRF assay
[22] = AUC in Mycobacterium tuberculosis H37Ra-induced arthritis Lewis rat; assay type: ADME, organism-based; details: plasma
[23] = Cmax in Sprague-Dawley rat at 5 mg/kg, po; assay type: ADME, organism-based; parameters: dose 5 mg/kg, route oral; details: in vivo
[24] = Volume of distribution at steady state in Sprague-Dawley rat at 2 mg/kg, iv; assay type: ADME, organism-based; parameters: dose 2 mg/kg, route intravenous; details: in vivo, read-out: Vdss
[25] = target: Tyrosine-protein kinase JAK3 (Homo sapiens, UniProt P52333); assay: Inhibition of JAK3 by HTRF assay
[26] = target: Mitogen-activated protein kinase 3 (Homo sapiens, UniProt P27361); assay: Inhibition of Erk1 by HTRF assay
[27] = target: Ribosomal protein S6 kinase alpha-5 (Homo sapiens, UniProt O75582); assay: Inhibition of MSK1 by HTRF assay
[28] = AUC (0 to infinity) in Sprague-Dawley rat at 2 mg/kg, iv; assay type: ADME, organism-based; parameters: time infinity, dose 2 mg/kg, route intravenous; details: plasma
[29] = test system: Rattus norvegicus; assay: Inhibition of Mycobacterium tuberculosis H37Ra-induced arthritis in Lewis rat assessed as reduction of paw swelling at 60 mg/kg, po daily from day 9 to day 17 relative to control; assay type: functional
[30] = test system: Mus musculus; assay: Inhibition of anti-CD3-induced IL2 production in BALB/c mouse serum at 3 mg/kg, po by ELISA relative to control; assay type: functional
[31] = test system: Rattus norvegicus; assay: Antiinflammatory activity against collagen-induced arthritis in Lewis rat assessed as reduction of paw swelling at 3 mg/kg, po qd for 7 days relative to control; assay type: functional; parameters: scale not given: the % may be the effect or the level left
[32] = Tmax in Sprague-Dawley rat at 5 mg/kg, po; assay type: ADME, organism-based; parameters: dose 5 mg/kg, route oral; details: in vivo
[33] = test system: Rattus norvegicus; assay: Inhibition of Mycobacterium tuberculosis H37Ra-induced arthritis in Lewis rat assessed as reduction of paw swelling at 20 mg/kg, po daily from day 9 to day 17 relative to control; assay type: functional
[34] = target: Mitogen-activated protein kinase 9 (Homo sapiens, UniProt P45984); assay: Inhibition of JNK2 by HTRF assay
[35] = test system: Mus musculus; assay: Inhibition of anti-CD3-induced IL2 production in BALB/c mouse serum at 30 mg/kg, po by ELISA relative to control; assay type: functional
[36] = Inhibition of anti-CD3/CD28-induced human T cell proliferation
[37] = test system: Rattus norvegicus; assay: Antiinflammatory activity against collagen-induced arthritis in Lewis rat assessed as reduction of paw swelling at 0.3 mg/kg, po qd for 7 days relative to control; assay type: functional; parameters: scale not given: the % may be the effect or the level left
[38] = test system: Mus musculus; assay: Inhibition of anti-CD3-induced IL2 production in BALB/c mouse serum at 10 mg/kg, po by ELISA relative to control; assay type: functional
[39] = target: Tyrosine-protein kinase SYK (Homo sapiens, UniProt P43405); assay: Inhibition of Syk by HTRF assay
[40] = Cmax in Mycobacterium tuberculosis H37Ra-induced arthritis Lewis rat; assay type: ADME, organism-based; details: in vivo
[41] = target: Mast/stem cell growth factor receptor Kit (Homo sapiens, UniProt P10721); assay: Inhibition of c-Kit by HTRF assay
[42] = Half life in Sprague-Dawley rat at 2 mg/kg, iv; assay type: ADME, organism-based; parameters: dose 2 mg/kg, route intravenous; details: in vivo
[43] = target: Serine/threonine-protein kinase B-raf (Homo sapiens, UniProt P15056); assay: Inhibition of b-Raf by HTRF assay
[44] = test system: Rattus norvegicus; assay: Inhibition of Mycobacterium tuberculosis H37Ra-induced arthritis in Lewis rat assessed as reduction of paw swelling at 10 mg/kg, po daily from day 9 to day 17 relative to control; assay type: functional
[45] = target: Tyrosine-protein kinase BTK (Homo sapiens, UniProt Q06187); assay: Inhibition of Btk by HTRF assay
[46] = target: Tyrosine-protein kinase ITK/TSK (Homo sapiens, UniProt Q08881); assay: Inhibition of Itk by HTRF assay
[47] = Clearance in Sprague-Dawley rat at 2 mg/kg, iv; assay type: ADME, organism-based; parameters: dose 2 mg/kg, route intravenous; details: in vivo
[48] = AUC in collagen-induced arthritis Lewis rat; assay type: ADME, organism-based; details: plasma

Sequence of Vascular endothelial growth factor receptor 2 (P35968 whole entry): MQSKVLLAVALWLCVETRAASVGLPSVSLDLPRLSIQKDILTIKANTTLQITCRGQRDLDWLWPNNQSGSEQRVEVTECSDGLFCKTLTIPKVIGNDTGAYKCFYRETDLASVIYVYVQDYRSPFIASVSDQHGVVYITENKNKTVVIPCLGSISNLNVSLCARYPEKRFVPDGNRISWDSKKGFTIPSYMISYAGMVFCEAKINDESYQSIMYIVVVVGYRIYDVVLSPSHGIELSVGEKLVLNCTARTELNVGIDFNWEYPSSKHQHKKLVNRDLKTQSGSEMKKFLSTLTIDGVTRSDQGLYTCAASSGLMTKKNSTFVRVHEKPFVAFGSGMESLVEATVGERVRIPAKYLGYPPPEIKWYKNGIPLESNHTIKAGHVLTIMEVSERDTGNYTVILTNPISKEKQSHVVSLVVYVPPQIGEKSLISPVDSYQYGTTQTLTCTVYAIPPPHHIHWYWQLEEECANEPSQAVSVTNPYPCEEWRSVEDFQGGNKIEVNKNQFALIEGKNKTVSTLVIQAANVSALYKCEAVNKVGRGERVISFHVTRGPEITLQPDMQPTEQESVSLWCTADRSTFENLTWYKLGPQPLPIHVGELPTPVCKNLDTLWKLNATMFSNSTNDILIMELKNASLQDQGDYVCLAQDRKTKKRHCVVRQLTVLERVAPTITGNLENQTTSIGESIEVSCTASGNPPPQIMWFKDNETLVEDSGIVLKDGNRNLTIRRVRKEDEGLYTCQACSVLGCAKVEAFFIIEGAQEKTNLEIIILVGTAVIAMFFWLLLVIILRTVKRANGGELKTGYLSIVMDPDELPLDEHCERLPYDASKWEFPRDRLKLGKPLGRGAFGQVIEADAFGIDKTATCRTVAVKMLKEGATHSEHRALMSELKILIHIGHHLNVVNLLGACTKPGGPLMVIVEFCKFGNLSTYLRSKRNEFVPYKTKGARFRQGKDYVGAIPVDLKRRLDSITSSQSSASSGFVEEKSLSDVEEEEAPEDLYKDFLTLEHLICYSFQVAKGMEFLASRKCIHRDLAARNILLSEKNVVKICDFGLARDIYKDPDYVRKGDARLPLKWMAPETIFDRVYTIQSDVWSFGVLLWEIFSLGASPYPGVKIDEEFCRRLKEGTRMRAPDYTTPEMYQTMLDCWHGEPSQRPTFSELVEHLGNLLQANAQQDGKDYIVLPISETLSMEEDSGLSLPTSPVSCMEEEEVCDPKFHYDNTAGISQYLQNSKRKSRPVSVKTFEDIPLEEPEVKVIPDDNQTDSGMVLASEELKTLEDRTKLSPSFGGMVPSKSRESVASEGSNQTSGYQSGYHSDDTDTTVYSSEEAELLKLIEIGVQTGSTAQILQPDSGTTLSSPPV
Sequence of Tyrosine-protein kinase Lck (P06239 whole entry): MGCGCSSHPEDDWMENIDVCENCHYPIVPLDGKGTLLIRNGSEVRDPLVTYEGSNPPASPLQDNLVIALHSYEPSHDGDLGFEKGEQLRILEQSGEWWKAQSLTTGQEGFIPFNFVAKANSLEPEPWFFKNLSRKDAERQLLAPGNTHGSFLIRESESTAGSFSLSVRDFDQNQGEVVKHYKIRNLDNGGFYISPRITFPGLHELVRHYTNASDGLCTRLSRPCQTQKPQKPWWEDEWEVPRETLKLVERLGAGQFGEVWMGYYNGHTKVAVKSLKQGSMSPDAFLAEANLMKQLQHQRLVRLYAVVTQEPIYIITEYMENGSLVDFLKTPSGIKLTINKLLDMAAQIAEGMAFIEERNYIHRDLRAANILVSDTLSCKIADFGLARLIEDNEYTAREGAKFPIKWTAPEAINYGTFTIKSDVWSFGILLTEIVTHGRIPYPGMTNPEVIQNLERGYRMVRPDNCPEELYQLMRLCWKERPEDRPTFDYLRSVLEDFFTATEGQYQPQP
Sequence of Proto-oncogene tyrosine-protein kinase Src (P12931 2-536 limits assumed): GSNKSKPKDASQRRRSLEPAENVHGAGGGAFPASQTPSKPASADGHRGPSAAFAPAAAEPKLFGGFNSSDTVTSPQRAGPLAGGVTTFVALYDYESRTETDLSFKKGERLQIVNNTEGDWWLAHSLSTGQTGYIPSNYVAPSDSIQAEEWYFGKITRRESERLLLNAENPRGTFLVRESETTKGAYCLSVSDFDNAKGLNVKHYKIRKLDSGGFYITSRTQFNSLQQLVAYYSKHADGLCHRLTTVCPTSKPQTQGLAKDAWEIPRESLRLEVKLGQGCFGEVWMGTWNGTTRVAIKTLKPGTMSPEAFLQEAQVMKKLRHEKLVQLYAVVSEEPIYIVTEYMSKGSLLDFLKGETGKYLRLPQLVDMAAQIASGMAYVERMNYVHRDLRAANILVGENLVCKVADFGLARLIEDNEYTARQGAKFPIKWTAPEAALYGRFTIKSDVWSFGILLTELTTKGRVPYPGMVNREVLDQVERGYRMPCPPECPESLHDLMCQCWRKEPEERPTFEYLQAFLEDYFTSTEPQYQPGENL
Sequence of Mitogen-activated protein kinase 14 (Q16539 whole entry): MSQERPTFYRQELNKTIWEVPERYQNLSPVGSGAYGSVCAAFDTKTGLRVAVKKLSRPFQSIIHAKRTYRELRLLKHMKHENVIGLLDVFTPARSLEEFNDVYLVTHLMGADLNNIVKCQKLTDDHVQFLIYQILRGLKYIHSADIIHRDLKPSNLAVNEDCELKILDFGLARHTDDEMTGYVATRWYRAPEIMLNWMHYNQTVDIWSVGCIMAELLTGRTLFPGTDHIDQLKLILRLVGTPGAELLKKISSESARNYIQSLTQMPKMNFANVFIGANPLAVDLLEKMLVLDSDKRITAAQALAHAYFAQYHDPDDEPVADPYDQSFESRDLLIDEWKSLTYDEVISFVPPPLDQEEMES
Sequence of Mitogen-activated protein kinase 3 (P27361 whole entry): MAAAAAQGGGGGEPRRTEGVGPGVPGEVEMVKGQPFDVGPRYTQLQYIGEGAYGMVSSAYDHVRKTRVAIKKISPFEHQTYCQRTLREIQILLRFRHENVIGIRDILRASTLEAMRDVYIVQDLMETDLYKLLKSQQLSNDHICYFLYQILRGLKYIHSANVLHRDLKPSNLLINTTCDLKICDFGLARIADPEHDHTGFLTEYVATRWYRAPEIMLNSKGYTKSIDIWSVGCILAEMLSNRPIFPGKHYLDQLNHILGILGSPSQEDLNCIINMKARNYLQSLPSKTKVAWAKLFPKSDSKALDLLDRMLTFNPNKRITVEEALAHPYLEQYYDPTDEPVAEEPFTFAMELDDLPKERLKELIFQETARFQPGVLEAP
Sequence of Tyrosine-protein kinase ZAP-70 (P43403 whole entry): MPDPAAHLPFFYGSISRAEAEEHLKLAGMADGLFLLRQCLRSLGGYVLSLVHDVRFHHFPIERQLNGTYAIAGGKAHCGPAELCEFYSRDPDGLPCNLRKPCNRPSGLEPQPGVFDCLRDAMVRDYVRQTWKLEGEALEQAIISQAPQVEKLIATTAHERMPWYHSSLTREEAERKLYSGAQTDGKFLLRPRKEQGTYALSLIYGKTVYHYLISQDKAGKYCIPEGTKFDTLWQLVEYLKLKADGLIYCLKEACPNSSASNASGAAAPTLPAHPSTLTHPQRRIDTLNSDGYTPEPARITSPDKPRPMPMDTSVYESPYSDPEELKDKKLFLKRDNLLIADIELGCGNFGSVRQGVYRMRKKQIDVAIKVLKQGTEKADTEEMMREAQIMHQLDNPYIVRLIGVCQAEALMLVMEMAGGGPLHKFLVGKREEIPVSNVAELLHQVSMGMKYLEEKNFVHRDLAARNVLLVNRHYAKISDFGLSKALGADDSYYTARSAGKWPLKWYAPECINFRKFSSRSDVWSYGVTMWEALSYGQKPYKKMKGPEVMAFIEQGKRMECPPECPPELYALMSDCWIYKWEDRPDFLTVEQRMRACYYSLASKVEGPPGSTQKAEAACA
Sequence of Tyrosine-protein kinase BTK (Q06187 whole entry): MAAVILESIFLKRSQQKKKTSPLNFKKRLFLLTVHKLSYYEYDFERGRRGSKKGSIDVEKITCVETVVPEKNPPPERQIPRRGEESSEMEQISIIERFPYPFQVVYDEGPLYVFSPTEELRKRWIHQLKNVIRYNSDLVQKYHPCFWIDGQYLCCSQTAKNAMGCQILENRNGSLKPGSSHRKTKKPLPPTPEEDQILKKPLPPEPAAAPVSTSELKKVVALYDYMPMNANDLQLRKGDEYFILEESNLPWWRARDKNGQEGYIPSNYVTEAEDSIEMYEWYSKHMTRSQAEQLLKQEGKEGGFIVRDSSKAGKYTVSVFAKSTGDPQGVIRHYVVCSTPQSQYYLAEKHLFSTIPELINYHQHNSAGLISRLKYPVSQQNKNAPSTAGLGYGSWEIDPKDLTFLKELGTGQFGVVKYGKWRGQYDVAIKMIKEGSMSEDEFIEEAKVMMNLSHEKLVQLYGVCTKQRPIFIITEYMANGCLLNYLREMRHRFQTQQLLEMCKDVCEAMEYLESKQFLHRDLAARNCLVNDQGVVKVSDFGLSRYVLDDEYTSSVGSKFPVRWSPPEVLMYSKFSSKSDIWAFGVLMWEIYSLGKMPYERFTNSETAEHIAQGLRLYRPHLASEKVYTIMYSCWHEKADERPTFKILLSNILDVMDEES
Sequence of Mitogen-activated protein kinase 9 (P45984 whole entry): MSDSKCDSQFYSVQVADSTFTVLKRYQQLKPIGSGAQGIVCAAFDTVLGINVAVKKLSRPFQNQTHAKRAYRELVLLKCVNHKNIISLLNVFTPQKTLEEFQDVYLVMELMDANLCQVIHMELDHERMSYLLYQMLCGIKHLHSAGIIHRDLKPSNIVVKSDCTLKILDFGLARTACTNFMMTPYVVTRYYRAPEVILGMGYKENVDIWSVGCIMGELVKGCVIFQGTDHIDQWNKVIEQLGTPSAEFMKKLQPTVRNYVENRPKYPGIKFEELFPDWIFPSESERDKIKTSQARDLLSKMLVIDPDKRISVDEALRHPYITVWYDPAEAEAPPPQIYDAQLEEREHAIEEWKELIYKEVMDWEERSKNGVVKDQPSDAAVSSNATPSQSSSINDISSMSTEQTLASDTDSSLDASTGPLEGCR

Structure (SMILES): COc1cc(Nc2ncnc(-n3c(Nc4ccccc4)nc4ccccc43)n2)cc(OC)c1OC
- IC50 [1]: 0.463 µM

Structure (SMILES): COc1cc(Nc2ncc3c(=O)n(-c4c(C)cccc4C)c4nc5ccccc5n4c3n2)cc(OC)c1OCCCN1CCN(C)CC1
- IC50 [2]: 0.07 µM
- IC50 [3]: 4 µM
- IC50 [4]: 0.08 µM
- IC50 [1]: > 10 µM
- IC50 [5]: 0.006 µM
- IC50 [6]: 0.19 µM

Structure (SMILES): COc1cc(Nc2ncc3c(=O)n(-c4c(C)cccc4C)c4nc5ccccc5n4c3n2)cc(OC)c1OCCN1CCOCC1
- IC50 [2]: 0.044 µM
- IC50 [3]: 1.7 µM
- IC50 [4]: 0.18 µM
- IC50 [1]: > 10 µM
- IC50 [5]: 0.01 µM
- solubility [7]: 0.018 mg/mL (≈ 29 µM)
- IC50 [6]: 0.36 µM

Structure (SMILES): COc1cc(Nc2ncc3c(=O)n(-c4c(C)cccc4C)c4nc5ccccc5n4c3n2)ccc1N1CCN(C)CC1
- IC50 [2]: 0.1 µM
- IC50 [3]: 3.6 µM
- IC50 [4]: 0.051 µM
- IC50 [1]: 7.5 µM
- IC50 [5]: 0.005 µM
- solubility [7]: > 0.2 mg/mL
- IC50 [6]: 0.43 µM

Structure (SMILES): COc1ccc(Cl)cc1-n1c(=O)c2cnc(Nc3ccc(N4CCN(C)CC4)cc3)nc2n2c3ccccc3nc12
- IC50 [2]: 1.4 µM
- IC50 [3]: > 25 µM
- IC50 [4]: 1 µM
- IC50 [5]: 0.023 µM

Structure (SMILES): COc1cc(Nc2ncc3c(=O)n(-c4c(C)cccc4C)c4nc5ccccc5n4c3n2)ccc1OCCN1CCN(C)CC1
- IC50 [2]: 0.24 µM
- IC50 [3]: 5.5 µM
- IC50 [4]: 0.15 µM
- IC50 [1]: > 10 µM
- IC50 [5]: 0.019 µM
- IC50 [6]: 16 µM

Structure (SMILES): Cc1cccc(C)c1-n1c(=O)c2cnc(Nc3ccc(N4CCN(C)CC4)cc3)nc2n2c3ccccc3nc12
- IC50 [8]: 7.3 µM
- ED50 [9]: 3.2 mg/kg
- IC50 [3]: 5.1 µM
- ED50 [10]: 24 mg/kg
- IC50 [4]: 0.047 µM
- bioavailability [11]: 17%
- IC50 [12]: 0.021 µM
- Activity [13]: 21%
- Cmax [14]: 0.5 µM
- IC50 [15]: 0.49 µM
- AUC(0-inf) [16]: 0.862 µg·h/mL
- ED50 [17]: 26 mg/kg
- Activity [18]: 95%
- IC50 [19]: 1.5 µM
- IC50 [1]: > 10 µM
- IC50 [20]: 5.8 µM
- IC50 [21]: 0.75 µM
- AUC [22]: 2.7 µM·h
- Cmax [23]: 0.082 µg/mL
- Vd [24]: 7.5 L/kg
- IC50 [25]: 0.15 µM
- IC50 [26]: > 100 µM
- IC50 [27]: > 100 µM
- AUC(0-inf) [28]: 1.15 µg·h/mL
- inhibition in vivo at 60 mg/kg [29]: 90%
- inhibition in vivo at 3 mg/kg [30]: 15%
- Activity [31]: 49%
- Tmax [32]: 3 h
- inhibition in vivo at 20 mg/kg [33]: 64%
- IC50 [34]: > 40 µM
- inhibition in vivo at 30 mg/kg [35]: 56%
- IC50 [36]: 0.53 µM
- Activity [37]: 15%
- inhibition in vivo at 10 mg/kg [38]: 28%
- IC50 [39]: 0.2 µM
- Cmax [40]: 0.7 µM
- IC50 [41]: 0.56 µM
- solubility [7]: 0.153 mg/mL (≈ 288 µM)
- half-life [42]: 3.12 h
- IC50 [43]: 0.54 µM
- inhibition in vivo at 10 mg/kg [44]: 17%
- IC50 [45]: 0.41 µM
- IC50 [46]: > 20 µM
- clearance [47]: 1.8 L/h/kg
- AUC [48]: 3.3 µM·h
- IC50 [6]: 0.46 µM

Structure (SMILES): Cc1ccc(-n2c(=O)c3cnc(Nc4ccc(N5CCN(C)CC5)cc4)nc3n3c4ccccc4nc23)cc1
- IC50 [2]: 1.7 µM
- IC50 [3]: > 25 µM
- IC50 [5]: 0.35 µM

Structure (SMILES): Cc1cccc(C)c1-n1c(=O)c2cnc(Nc3ccc(OCCCN4CCCCC4)cc3)nc2n2c3ccccc3nc12
- IC50 [2]: 0.16 µM
- IC50 [3]: 5.1 µM
- IC50 [4]: 0.37 µM
- IC50 [1]: 4.3 µM
- IC50 [5]: 0.012 µM
- solubility [7]: 0.101 mg/mL (≈ 176 µM)
- IC50 [6]: 3.6 µM

Structure (SMILES): COc1cccc(-n2c(=O)c3cnc(Nc4ccc(N5CCN(C)CC5)cc4)nc3n3c4ccccc4nc23)c1
- IC50 [2]: 1.9 µM
- IC50 [3]: 8.3 µM
- IC50 [5]: 0.19 µM

Structure (SMILES): CN1CCN(c2ccc(Nc3ncc4c(=O)n(-c5c(Cl)cc(Cl)cc5Cl)c5nc6ccccc6n5c4n3)cc2)CC1
- IC50 [2]: 0.035 µM
- IC50 [3]: 0.48 µM
- IC50 [4]: 0.14 µM
- IC50 [1]: > 10 µM
- IC50 [5]: 0.008 µM
